From patent US8569229B2, “Compositions and methods which modulate G-protein signaling for the treatment of inflammatory disorders such as asthma and allergic conjunctivitis” (The Children's Hospital of Philadelphia, priority 2008, dated 2013)
Entries after “also recorded” stand apart in the source; their conditions may differ.

Legend:
human ASM cells [1] = test: Assay of cAMP PDE activity in ASM cell lysates; format: cell-based
Method: Assay of cAMP PDE activity: Levels of cAMP PDE activity were assayed in ASM cell lysates using a colorimetric, non-radioactive enzymatic assay kit from Biomol, as per the manufacture's protocol. PDE activity was determined following exposure of ASM cells for 24 hr to either vehicle alone (control), PGE2 (100 μM), or forskolin (100 μM) in the absence and presence of pretreatment with rolipram (10 μM), cycloheximide (100 μM), actinomycin D (4 μM), or H89 (10 μM).
In each case, the measured levels of PDE activity were standardized to the protein content in the cell extracts.

CREB/ATF1 = test: Immunoblot analysis of CREB/ATF1 phosphorylation in ASM cells; format: cell-based, human; conditions: PGE2 100 nM; isoproterenol 10 μM
Description: (§1) Detection of PDE4D5 mRNA transcripts: Total RNA was extracted from the cultured ASM cells using the TRIzol method (Invitrogen), and cDNAs were isolated by RT-PCR using the SuperScript First Strand Synthesis System kit from Invitrogen, with the following oligonucleotide primer sets (Integrated DNA Technologies): for PDE4D5, 5′-[…]-3′ (forward; SEQ ID NO: 2) and 5′-[…]-3′ (reverse; SEQ ID NO: 3); and for β-actin, 5′-[…]-3′ (forward; SEQ ID NO: 4) and 5′-[…]-3′ (reverse; SEQ ID NO: 5). The reaction volume was 20 μl and cycling conditions used were 35 cycles of 30 sec denaturation at 95° C., followed by 30 sec annealing at 60° C. and elongation at 72° C. for 30 sec. Ex-Tag (Takara Biotechnology) was used as DNA polymerase. […] Following protein extraction and the addition of gel-loading buffer, the extracts were loaded on a 10% SDS-PAGE gel for immunoblotting after transfer to a PVDF membrane. The membranes were then incubated overnight with monoclonal mouse anti-human primary antibodies directed against phospho-CREB and -ATF1, phospho-ERK1/2, or α-actin, and levels were detected by ECL after a 1-hr incubation with a 1:2,000 dilution of HRP-conjugated rabbit anti-mouse secondary antibody, followed by exposure to autoradiography film. The protein band intensities were quantified by densitometry. siRNA-mediated knockdown of PKA: ASM cells were seeded into 6-well plates and, at ˜40% confluency, the medium was replaced with the reduced serum-containing medium, Opti-MEM (Invitrogen). The cells were then transfected twice during a 24-hr interval with two pools of three siRNA duplexes, each pool targeted against the human PKAα or PKAγ catalytic subunits (Santa Cruz Biotechnology; sc-36240 and sc-36236, respectively), or with a non-targeted control (scrambled) siRNA duplex, using Oligofectamine (Invitrogen) as the transfection agent. The pools of siRNAs were applied to each well at a final concentration of 100 nM for each siRNA preparation. […] Transfection of ASM cells with adeno-βARK-ct: Adenovirus (adeno)-βARK-ct, an adenovirus vector encoding the βARK1 carboxyl-terminal domain which blocks Gβγ signaling (25,26), and adeno-β-gal, an adenovirus vector expressing lacZ as a negative control, were constructed using the AdenoX adenovirus construction kit (BD-Clontech). Recombinant plaques were isolated and propagated in HEK293 cells (Invitrogen), with viral purification using the cesium chloride gradient method, and viral titer detected by plaque assay. The ASM cells were transfected with either of the adenoviral vectors at a multiplicity of infection (MOI) of 100, and experiments were conducted at 24 hr following adenoviral tranfections. Pharmacodynamic studies of constrictor and relaxation responsiveness in rabbit ASM tissues: Following initial sedation and subsequent general anesthesia with intramuscular injections of xylazine (10 mg/kg) and ketamine (50 mg/kg), respectively, rabbits were sacrificed with an intravenously administered overdose of sodium pentobarbital (100 mg/kg). As described previously (16), the tracheae were excised via open thoracotomy, the loose connective tissue and epithelium were scraped and removed, and the tracheae were divided into 8 ring segments, each of 6-8 mm in length. […] After these incubations, the tissues were placed in organ baths containing modified Krebs-Ringer solution aerated with 5% CO2 in oxygen (pH of 7.35-7.40), and attached to force transducers to continuously monitor isometric tension. […] The constrictor and relaxation dose-response curves were analyzed with respect to each tissue's maximal isometric contractile force (Tmax) to ACh and maximal relaxation response (Rmax) to isoproterenol from the initial level of active cholinergic contraction. Statistical analyses: Results are expressed as mean±SE values. Comparisons between groups were made using the Student's t-test (two-tailed) or ANOVA with Tukey's post-test analysis, where appropriate.

PDE4D5 mRNA = test: Detection of PDE4D5 mRNA transcripts by RT-PCR in ASM cells; format: cell-based, human; conditions: PGE2 100 nM, salmeterol or isoproterenol 10 μM
Description: as §1

rabbit ASM tissues [2] = test: Relaxation responsiveness to isoproterenol in isolated rabbit ASM tissues half-maximally contracted with ACh
Description: as §1

ERK1/2 = test: Immunoblot analysis of ERK1/2 phosphorylation in ASM cells; format: cell-based, human
Description: as §1

rabbit ASM tissues [3] = test: Constrictor responsiveness to acetylcholine (ACh) in isolated rabbit ASM tissues, isometric tension in organ bath; conditions: tissues exposed 24 hr to the agent
Description: as §1

human ASM cells [4] = test: Assay of cAMP accumulation in cultured human ASM cells; format: cell-based; conditions: isoproterenol 1.0 μM, 5 min; PGE2 100 nM or salmeterol 10 μM x 24 hr; no rolipram
Description: Animals: Adult New Zealand White rabbits were used in this study, which was approved by the Biosafety and Animal Research Committee of the Joseph Stokes Research Institute at Children's Hospital of Philadelphia. The animals had no signs of respiratory disease for several weeks before the study, and their care and use were in accordance with the “Guide for the Care and Use of Laboratory Animals” prepared by the Institute of Laboratory Animal Resources, National Research Council. Culture and treatment of ASM cells: The human ASM cells were grown in SmBm media supplemented with 10% FBS (BioWhittaker) and maintained throughout in a humidified incubator containing 5% CO2 in air at 37° C. The experimental protocols involved growing the cells to ˜95% confluence in the above medium. […] Assay of cAMP accumulation: In initial studies, intracellular cAMP levels were determined in near confluent ASM cell cultures at varying times following treatment of ASM cells with varying concentrations of isoproterenol (0.1 to 100 μM). […]
Thereafter, in the continued presence of these treatments, cells were exposed for 5 min to isoproterenol (10 μM) at 37° C., and intracellular cAMP concentrations were determined per manufacturer's protocols using a direct cAMP Enzyme Immunoassay Kit (R&D Systems, Minneapolis, Minn.). In both cases, the cAMP measurements were expressed in units of picomoles/milligram protein.

## CCCCC[C@H](O)/C=C/[C@H]1[C@H](O)CC(=O)[C@@H]1C/C=C\CCCC(=O)O [PGE2, prostaglandin (PG)E2]
Human ASM cells [1]; cells exposed 24 hr to the agent
  cAMP PDE (PDE4) activity relative to vehicle-treated control cells: significantly increased; also recorded: significant increase
Human ASM cells [1]; cells incubated 24 hr with the agent (PGE2 or forskolin 100 μM; salmeterol or isoproterenol 10 μM)
  PDE activity, fold above control: 3.74 fold
CREB/ATF1
  phosphorylation of CREB and ATF1 in cells treated with the agent: transiently increased phosphorylation; also recorded: transiently upregulated expression
  time of peak CREB/ATF1 phosphorylation: 30 min
PDE4D5 mRNA
  time of peak PDE4D5 mRNA induction: 6 h
PDE4D5 mRNA; densitometric analysis, 3 experiments
  peak PDE4D5 mRNA expression, fold above unstimulated cells: 5.9 fold
Rabbit ASM tissues [2]; mean±SE, tissues exposed 24 hr to the agent (PGE2 100 nM; salmeterol 10 μM)
  maximal relaxation (Rmax) response to isoproterenol: 31.4±5.4%
Rabbit ASM tissues [2]; tissues exposed 24 hr to the agent
  relaxation responsiveness to isoproterenol relative to vehicle-treated controls: impaired relaxation responses; also recorded: impaired ASM relaxation
ERK1/2; PGE2 100 nM, isoproterenol or salmeterol 10 μM
  time of peak ERK1/2 phosphorylation: 30 min
ERK1/2; PGE2 or forskolin 100 nM, isoproterenol or salmeterol 10 μM
  ERK1/2 phosphorylation in cells treated with the agent: increased expression of phosphorylated ERK1/2; also recorded: significantly increased
ERK1/2; densitometric ratios, mean±SE, PGE2 30 min, isoproterenol 20 min
  increase in ERK1/2 phosphorylation, fold above control (vehicle-treated) cells: 3.76±0.64 fold
Rabbit ASM tissues [3]
  constrictor responsiveness to ACh relative to vehicle-treated controls: significantly increased constrictor responses; also recorded: increased constrictor responsiveness
Human ASM cells [4]
  isoproterenol-induced cAMP accumulation after 24 hr exposure to the agent: significantly reduced cAMP responses; also recorded: significantly attenuated
